# Source: patent US20230036854A1, “HETEROCYCLIC SPIRO-COMPOUNDS AS AM2 RECEPTOR INHIBITORS” (THE UNIVERSITY OF SHEFFIELD, priority 2018, published 2023)
# Target: T1, AM2 receptor (1321N1 cells transfected with CALCRL+RAMP3) (Homo sapiens, UniProt O60896+Q16602)
# T1 construct: host or cells: 1321N1 cells
# Assay: AM2 receptor inhibition, LANCE cAMP agonist-antagonist competition assay
# Assay type: cell-based
# Conditions: inhibition of AM induced cAMP activation, read-out: AM2 D2 protocol: pIC50 (converted)
# Outline: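 cAMP was quantified by LANCE TR-FRET after an EC50 challenge with adrenomedullin (15 min, room temperature) in CALCRL+RAMP3-transfected 1321N1 cells (2500/well) that had first been exposed to compound for 30 min. Buffer was pH 7.4 HBSS with HEPES and BSA. Forskolin defined 100% stimulation and vehicle 0%.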
# T1 sequence (Q16602 23-461): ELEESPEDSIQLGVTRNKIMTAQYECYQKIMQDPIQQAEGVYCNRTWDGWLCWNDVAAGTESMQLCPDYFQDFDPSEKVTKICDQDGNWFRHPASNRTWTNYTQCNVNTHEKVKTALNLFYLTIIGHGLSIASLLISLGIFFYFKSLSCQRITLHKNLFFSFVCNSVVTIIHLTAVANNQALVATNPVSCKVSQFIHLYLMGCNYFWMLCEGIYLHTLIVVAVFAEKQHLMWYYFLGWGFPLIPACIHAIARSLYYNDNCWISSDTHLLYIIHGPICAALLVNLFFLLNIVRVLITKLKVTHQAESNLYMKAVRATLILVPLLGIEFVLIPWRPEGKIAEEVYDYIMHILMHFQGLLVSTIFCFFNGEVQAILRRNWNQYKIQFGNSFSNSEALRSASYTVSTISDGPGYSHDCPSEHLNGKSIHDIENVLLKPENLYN
# T1 sequence (O60896 24-148): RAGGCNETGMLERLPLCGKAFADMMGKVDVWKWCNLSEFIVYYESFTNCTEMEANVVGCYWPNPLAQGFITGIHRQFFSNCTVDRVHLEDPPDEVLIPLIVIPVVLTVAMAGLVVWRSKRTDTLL
row,SMILES,IC50 [nM]
1,"CCC1(C(=O)N(CC(=O)Nc2ccc3c(c2)C[C@@]2(C3)C(=O)Nc3ncccc32)Cc2ccccc2CNC)CCN(C(=O)[C@@H]2COCCN2)CC1 [Example 93, 4-Ethyl-N-(2-((methylamino)methyl)benzyl)-1-((S)-morpholine-3-carbonyl)-N-(2-oxo-2-(((R)-2′-oxo-1,1′,2′,3-tetrahydrospiro[indene-2,3′-pyrrolo[2,3-b]pyridin]-5-yl)amino)ethyl)piperidine-4-carboxamide]",18.6
2,"CCC1(C(=O)N(CC(=O)Nc2ccc3c(c2)C[C@@]2(C3)C(=O)Nc3ncccc32)Cc2ccccc2CNC)CCN(C(=O)[C@H](C)NC)CC1 [Example 94, 4-Ethyl-N-(2-((methylamino)methyl)benzyl)-1-((S)-2-(methylamino)propanoyl)-N-(2-oxo-2-(((R)-2′-oxo-1,1′,2′,3-tetrahydrospiro[indene-2,3′-pyrrolo[2,3-b]pyridin]-5-yl)amino)ethyl)piperidine-4-carboxamide]",15.1
3,"CCC1(C(=O)N(CC(=O)Nc2ccc3c(c2)C[C@@]2(C3)C(=O)Nc3ncccc32)Cc2ccccc2CNC)CCN(C(=O)CN2CCC(F)(F)CC2)CC1 [Example 95, (R)-1-(2-(4,4-Difluoropiperidin-1-yl)acetyl)-4-ethyl-N-(2-((methylamino)methyl)benzyl)-N-(2-oxo-2-((2′-oxo-1,1′,2′,3-tetrahydrospiro[indene-2,3′-pyrrolo[2,3-b]pyridin]-5-yl)amino)ethyl)piperidine-4-carboxamide]",12.6
4,"CCC1(C(=O)N(CC(=O)Nc2ccc3c(c2)C[C@@]2(C3)C(=O)Nc3ncccc32)Cc2ccccc2CNC)CCN(C(=O)COCCOCCOCCOCCOC)CC1 [Example 96, (R)-4-Ethyl-1-(2,5,8,11,14-pentaoxahexadecan-16-oyl)-N-(2-((methylamino)methyl)benzyl)-N-(2-oxo-2-((2′-oxo-1,1′,2′,3-tetrahydrospiro[indene-2,3′-pyrrolo[2,3-b]pyridin]-5-yl)amino)ethyl)piperidine-4-carboxamide]",24.5
5,"CCC1(C(=O)N(CC(=O)Nc2ccc3c(c2)C[C@@]2(C3)C(=O)Nc3ncccc32)Cc2ccccc2CNC)CCN(C(=O)COCCOCCOCCOCCOCCOCCOC)CC1 [Example 97, (R)-1-(2,5,8,11,14,17,20-Heptaoxadocosan-22-oyl)-4-ethyl-N-(2-((methylamino)methyl)benzyl)-N-(2-oxo-2-((2′-oxo-1,1′,2′,3-tetrahydrospiro[indene-2,3′-pyrrolo[2,3-b]pyridin]-5-yl)amino)ethyl)piperidine-4-carboxamide]",8.71
6,"CCC1(C(=O)N(CC(=O)Nc2ccc3c(c2)C[C@@]2(C3)C(=O)Nc3ncccc32)Cc2ccccc2CNC)CCN(C(=O)C(C)(C)C(F)(F)F)CC1 [Example 98, (R)-4-Ethyl-N-(2-((methylamino)methyl)benzyl)-N-(2-oxo-2-((2′-oxo-1,1′,2′,3-tetrahydrospiro[indene-2,3′-pyrrolo[2,3-b]pyridin]-5-yl)amino)ethyl)-1-(3,3,3-trifluoro-2,2-dimethylpropanoyl)piperidine-4-carboxamide]",61.7
7,"CCC1(C(=O)N(CC(=O)Nc2ccc3c(c2)C[C@@]2(C3)C(=O)Nc3ncccc32)Cc2ccccc2CNC)CCN(C(=O)N(C)C)CC1 [Example 99, (R)-4-Ethyl-N1, N1-dimethyl-N4-(2-((methylamino)methyl)benzyl)-N4-(2-oxo-2-((2′-oxo-1,1′,2′,3-tetrahydrospiro[indene-2,3′-pyrrolo[2,3-b]pyridin]-5-yl)amino)ethyl)piperidine-1,4-dicarboxamide]",1.45
8,CCC1(C(=O)N(CC(=O)Nc2ccc3c(c2)C[C@@]2(C3)C(=O)Nc3ncccc32)Cc2ccccc2CNC)CCN(C(=O)NC)CC1 [Example 100],4.07
9,"CCC1(C(=O)N(CC(=O)Nc2ccc3c(c2)C[C@@]2(C3)C(=O)Nc3ncccc32)Cc2ccccc2CNC)CCN(C(=O)NC(C)C)CC1 [Example 101, (R)-4-Ethyl-N1-isopropyl-N4-(2-((methylamino)methyl)benzyl)-N4-(2-oxo-2-((2′-oxo-1,1′,2′,3-tetrahydrospiro[indene-2,3′-pyrrolo[2,3-b]pyridin]-5-yl)amino)ethyl)piperidine-1,4-dicarboxamide]",1.41
10,"CCC1(C(=O)N(CC(=O)Nc2ccc3c(c2)C[C@@]2(C3)C(=O)Nc3ncccc32)Cc2ccccc2CNC)CCN(C(=O)N2CCCC2)CC1 [Example 102, (R)-4-Ethyl-N-(2-((methylamino)methyl)benzyl)-N-(2-oxo-2-((2′-oxo-1,1′,2′,3-tetrahydrospiro[indene-2,3′-pyrrolo[2,3-b]pyridin]-5-yl)amino)ethyl)-1-(pyrrolidine-1-carbonyl)piperidine-4-carboxamide]",6.92
11,"CCC1(C(=O)N(CC(=O)Nc2ccc3c(c2)C[C@@]2(C3)C(=O)Nc3ncccc32)Cc2ccccc2CNC)CCN(C(=O)N2CCOCC2)CC1 [Example 103, (R)-4-Ethyl-N-(2-((methylamino)methyl)benzyl)-1-(morpholine-4-carbonyl)-N-(2-oxo-2-((2′-oxo-1,1′,2′,3-tetrahydrospiro[indene-2,3′-pyrrolo[2,3-b]pyridin]-5-yl)amino)ethyl)piperidine-4-carboxamide]",2.19
12,"CCC1(C(=O)N(CC(=O)Nc2ccc3c(c2)C[C@@]2(C3)C(=O)Nc3ncccc32)Cc2ccccc2CNC)CCN(C(=O)N2CCCCC2)CC1 [Example 104, (R)-4-Ethyl-N-(2-((methylamino)methyl)benzyl)-N-(2-oxo-2-((2′-oxo-1,1′,2′,3-tetrahydrospiro[indene-2,3′-pyrrolo[2,3-b]pyridin]-5-yl)amino)ethyl)-1-(piperidine-1-carbonyl) piperidine-4-carboxamide]",107
13,CCC1(C(=O)N(CC(=O)Nc2ccc3c(c2)C[C@@]2(C3)C(=O)Nc3ncccc32)Cc2ccccc2CNC)CCN(C(=O)NC23CC(C2)C3)CC1 [Example 105],50.1
14,"CCC1(C(=O)N(CC(=O)Nc2ccc3c(c2)C[C@@]2(C3)C(=O)Nc3ncccc32)Cc2ccccc2CNC)CCN(C(=O)N2CCC2)CC1 [Example 106, (R)-1-(Azetidine-1-carbonyl)-4-ethyl-N-(2-((methylamino)methyl)benzyl)-N-(2-oxo-2-((2′-oxo-1,1′,2′,3-tetrahydrospiro[indene-2,3′-pyrrolo[2,3-b]pyridin]-5-yl)amino)ethyl)piperidine-4-carboxamide]",11.7
15,"CCC1(C(=O)N(CC(=O)Nc2ccc3c(c2)C[C@@]2(C3)C(=O)Nc3ncccc32)Cc2ccccc2CNC)CCN(C(=O)N2CCC(F)(F)CC2)CC1 [Example 107, (R)-1-(4,4-Difluoropiperidine-1-carbonyl)-4-ethyl-N-(2-((methylamino)methyl)benzyl)-N-(2-oxo-2-((2′-oxo-1,1′,2′,3-tetrahydrospiro[indene-2,3′-pyrrolo[2,3-b]pyridin]-5-yl)amino)ethyl)piperidine-4-carboxamide]",57.5
16,"CCC1(C(=O)N(CC(=O)Nc2ccc3c(c2)C[C@@]2(C3)C(=O)Nc3ncccc32)Cc2ccccc2CNC)CCN(C(=O)N2CCC(F)(F)C2)CC1 [Example 108, (R)-1-(3,3-Difluoropyrrolidine-1-carbonyl)-4-ethyl-N-(2-((methylamino)methyl)benzyl)-N-(2-oxo-2-((2′-oxo-1,1′,2′,3-tetrahydrospiro[indene-2,3′-pyrrolo[2,3-b]pyridin]-5-yl)amino)ethyl)piperidine-4-carboxamide]",24
